This note sets out measurements from PubChem BioAssay AID330 (DTP/NCI, 2004).

Values joined by “and” are separate entries in the source; they are usually repeats but may differ in a detail not shown here. Equal values may be shown once. Inconclusive results and toxic doses are left out. Peptide text beside a SMILES is read from it. * marks the point of attachment. For = O=C*

For the assay, the system named is P388 leukemia ip, CD2F1 mice, survival T/C. The experiment in a line: NCI In Vivo Anticancer Drug Screen. Data for tumor model P388 Leukemia (intraperitoneal) in CD2F1 (CDF1) mice. Conditions: endpoint: median survival time, higher = longer survival. In outline:
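Mice carrying the transplanted tumor received test compound or vehicle. Survival was recorded in each group, and the value is the treated-group measurement divided by that of the vehicle-treated control group.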

The mark [1] stands for this setting: dose: 50.0 mg/kg/injection, schedule: Q01DX009 (ip), vehicle: saline with Tween-80.
Where [2] appears, read: dose: 100.0 mg/kg/injection, schedule: Q01DX009 (ip), vehicle: saline with Tween-80.
Setting [3] is: dose: 200.0 mg/kg/injection, schedule: Q01DX009 (ip), vehicle: saline with Tween-80.
Where [4] appears, read: dose: 50.0 mg/kg/injection, schedule: Q01DX009 (ip), vehicle: saline.
[5] abbreviates: dose: 100.0 mg/kg/injection, schedule: Q01DX009 (ip), vehicle: saline.
The mark [6] stands for this setting: dose: 200.0 mg/kg/injection, schedule: Q01DX009 (ip), vehicle: saline.
Where [7] appears, read: dose: 12.5 mg/kg/injection, schedule: Q01DX009 (ip), vehicle: saline.
[8] abbreviates: dose: 25.0 mg/kg/injection, schedule: Q01DX009 (ip), vehicle: saline.
Setting [9] is: dose: 50.0 mg/kg/injection, schedule: Q01DX005 (ip), vehicle: saline with Tween-80.
The mark [10] stands for this setting: dose: 100.0 mg/kg/injection, schedule: Q01DX005 (ip), vehicle: saline with Tween-80.
The mark [11] stands for this setting: dose: 60.0 mg/kg/injection, schedule: Q01DX005 (ip), vehicle: saline.
Setting [12] is: dose: 120.0 mg/kg/injection, schedule: Q01DX005 (ip), vehicle: saline.
The mark [13] stands for this setting: dose: 100.0 mg/kg/injection, schedule: Q04DX002 (ip), vehicle: saline with Tween-80.
Setting [14] is: dose: 200.0 mg/kg/injection, schedule: Q04DX002 (ip), vehicle: saline with Tween-80.
The mark [15] stands for this setting: dose: 6.25 mg/kg/injection, schedule: Q01DX005 (ip), vehicle: saline with Tween-80.
The mark [16] stands for this setting: dose: 12.5 mg/kg/injection, schedule: Q01DX005 (ip), vehicle: saline with Tween-80.
[17] abbreviates: dose: 6.25 mg/kg/injection, schedule: Q01DX009 (ip), vehicle: saline.
Setting [18] is: dose: 200.0 mg/kg/injection, schedule: Q01DX005 (ip), vehicle: saline with Tween-80.

As for `Cc1cc(NC(=S)SCc2ccc(Cl)cc2)ccc1Cl`, the T/C runs as follows: (dose: 50.0 mg/kg/injection, schedule: Q01DX009 (ip), vehicle: Klucel (hydroxypropylcellulose) (HPC)) 103 % of control and 118 % of control; (dose: 50.0 mg/kg/injection, schedule: Q01DX009 (ip), vehicle: suspension in saline) 97 % of control; (dose: 100.0 mg/kg/injection, schedule: Q01DX009 (ip), vehicle: suspension in saline) 92 % of control; (dose: 200.0 mg/kg/injection, schedule: Q01DX009 (ip), vehicle: suspension in saline) 96 % of control.
`Cc1cccc(Oc2cnc(=O)[nH]c2)c1`: the T/C is 100 % of control under setting [1], 93 % of control under setting [2] and 99 % of control under setting [3].
`CC(=O)n1c(N)nc2ccccc21`: the T/C by setting is: under setting [4], 104 % of control; under setting [5], 104 % of control; under setting [6], 90 % of control.
`O=C1C(CC=C(Cl)Cl)=C(OC2OC(CO)C(O)C(O)C2O)C(=O)c2ccccc21` (stereo unspecified): the T/C is, setting by setting: (dose: 3.12 mg/kg/injection, schedule: Q01DX009 (ip), vehicle: saline with Tween-80) 103 % of control; (dose: 6.25 mg/kg/injection, schedule: Q01DX009 (ip), vehicle: saline with Tween-80) 109 % of control; (dose: 12.5 mg/kg/injection, schedule: Q01DX009 (ip), vehicle: saline with Tween-80) 111 % of control.
In the case of `OCCCN1CCN(CCCO)CC1`, the T/C under setting [7] was 103 % of control and 96 % of control; the T/C under setting [8] was 97 % of control and 98 % of control; the T/C under setting [4] was 92 % of control and 97 % of control; the T/C under setting [5] was 101 % of control and 95 % of control; the T/C under setting [6] was 100 % of control and 106 % of control; the T/C (dose: 400.0 mg/kg/injection, schedule: Q01DX009 (ip), vehicle: saline) was 103 % of control and 91 % of control.
For `CCC(C)c1cc(/C=C2/OC(=O)c3ccccc32)cc(C(C)CC)c1O` (stereo unspecified), the T/C is 100 % of control (dose: 100.0 mg/kg/injection, schedule: Q04DX002 (ip), vehicle: saline); 99 % of control (dose: 200.0 mg/kg/injection, schedule: Q04DX002 (ip), vehicle: saline); 93 % of control (dose: 400.0 mg/kg/injection, schedule: Q04DX002 (ip), vehicle: saline).
`CC1=CCC2(C)CCC(C(C)C)C2(O)CC1` (stereo unspecified): the T/C (dose: 50.0 mg/kg/injection, schedule: Q04DX003 (ip), vehicle: saline) was 104 % of control; the T/C (dose: 100.0 mg/kg/injection, schedule: Q04DX003 (ip), vehicle: saline) was 90 % of control; the T/C (dose: 200.0 mg/kg/injection, schedule: Q04DX003 (ip), vehicle: saline) is 100 % of control.
As to `c1cc2[nH]c3ccncc3c2cn1`, the T/C by setting is: (dose: 25.0 mg/kg/injection, schedule: Q01DX009 (ip), vehicle: saline with Tween-80) 102 % of control; under setting [1], 105 % of control.
Regarding `Cc1ccc(S(=O)(=O)OC2COC(OCc3ccccc3)C(OS(=O)(=O)c3ccc(C)cc3)C2O)cc1` (stereo unspecified), the T/C is 100 % of control under setting [9] and 86 % of control under setting [10].
As for `CC1CC(C)(C)N=C(C2(c3ccccc3)CC2)O1` (stereo unspecified), the T/C under setting [1] was 109 % of control, the T/C under setting [2] was 109 % of control and the T/C under setting [3] is 100 % of control.
As for `OC(Cn1cccc1)Cn1cccc1`, the T/C runs as follows: under setting [11], 100 % of control; under setting [12], 103 % of control; (dose: 240.0 mg/kg/injection, schedule: Q01DX005 (ip), vehicle: saline) 100 % of control.
`O=c1c2c([nH]c3c4c(ccc13)NCCC4)CCC2`: the T/C runs as follows: (dose: 50.0 mg/kg/injection, schedule: Q04DX002 (ip), vehicle: saline with Tween-80) 95 % of control; under setting [13], 94 % of control; under setting [14], 92 % of control.
For `O=C(NCc1ccccn1)c1ccccc1`, the T/C by setting is: under setting [4], 103 % of control; under setting [5], 90 % of control; under setting [6], 100 % of control.
Regarding `Nc1[nH]c(=S)[nH]c(=S)c1N`, the T/C was 102 % of control under setting [13]; 98 % of control under setting [14]; 94 % of control (dose: 400.0 mg/kg/injection, schedule: Q04DX002 (ip), vehicle: saline with Tween-80).
For the compound `COC(=O)c1ncn(C2CCCCC2)c1N`, the T/C is 99 % of control under setting [15] and 101 % of control under setting [16].
As to `CCOC(=O)C(Cc1ccc(N(CCCl)CCCl)cc1)NP1(=O)NCCCO1` (stereo unspecified), the T/C was 186 % of control (dose: 14.0 mg/kg/injection, schedule: Q04DX003 (ip), vehicle: saline with Tween-80); 172 % of control (dose: 22.0 mg/kg/injection, schedule: Q04DX003 (ip), vehicle: saline with Tween-80); 218 % of control (dose: 33.0 mg/kg/injection, schedule: Q04DX003 (ip), vehicle: saline with Tween-80); 240 % of control (dose: 50.0 mg/kg/injection, schedule: Q04DX003 (ip), vehicle: saline with Tween-80).
In the case of `COC(=O)C12C(=O)C(C(=O)OC)(C(c3ccccc3)=C1c1ccccc1)C1OC(=O)OC12` (stereo unspecified), the T/C under setting [1] was 91 % of control and the T/C under setting [2] is 86 % of control.
`CC(NC=O)C(=O)NCC(=O)NC(CO)C(=O)NC(CCC(=O)O)C(=O)O` (stereo unspecified) (For-AGSE-OH; configuration not given here): the T/C (dose: 7.81 mg/kg/injection, schedule: Q01DX005 (ip), vehicle: water) is 105 % of control; the T/C (dose: 15.63 mg/kg/injection, schedule: Q01DX005 (ip), vehicle: water) is 104 % of control; the T/C (dose: 31.25 mg/kg/injection, schedule: Q01DX005 (ip), vehicle: water) is 101 % of control; the T/C (dose: 62.5 mg/kg/injection, schedule: Q01DX005 (ip), vehicle: water) is 101 % of control; the T/C (dose: 125.0 mg/kg/injection, schedule: Q01DX005 (ip), vehicle: water) was 99 % of control.
`CCN(CC)c1ccc(/C=C(\C#N)C(N)=S)cc1`: the T/C runs as follows: under setting [4], 89 % of control; under setting [5], 101 % of control; under setting [6], 105 % of control.
Consider `Cc1ccc(C)c(CN(CCO)CCO)c1`, for which the T/C was 109 % of control under setting [11] and 102 % of control under setting [12].
In the case of `CCC[CH2][Sn]([CH2]CCC)([CH2]CCC)[CH2]CCNCCCN(C)C`, the T/C was 96 % of control under setting [17]; 97 % of control under setting [7]; 96 % of control under setting [8]; 90 % of control under setting [4]; 86 % of control under setting [5].
For `CC(C)(CO)NC(=O)c1ccc(C(C)(C)C)cc1Br`, the T/C runs as follows: (dose: 100.0 mg/kg/injection, schedule: Q01DX001 (ip), vehicle: saline with Tween-80) 99 % of control; (dose: 200.0 mg/kg/injection, schedule: Q01DX001 (ip), vehicle: saline with Tween-80) 99 % of control; (dose: 400.0 mg/kg/injection, schedule: Q01DX001 (ip), vehicle: saline with Tween-80) 100 % of control.
For the compound `CCC1CC(C)C(O)/C=C/C=C/CC(C)OC(=O)CC(O)C(OC)C1OC1OC(C)CC(O)(C(C)=O)C1O` (stereo unspecified), the T/C is, setting by setting: (dose: 25.0 mg/kg/injection, schedule: Q01DX005 (ip), vehicle: Klucel (hydroxypropylcellulose) (HPC)) 104 % of control; (dose: 50.0 mg/kg/injection, schedule: Q01DX005 (ip), vehicle: Klucel (hydroxypropylcellulose) (HPC)) 104 % of control; (dose: 100.0 mg/kg/injection, schedule: Q01DX005 (ip), vehicle: Klucel (hydroxypropylcellulose) (HPC)) 102 % of control; (dose: 200.0 mg/kg/injection, schedule: Q01DX005 (ip), vehicle: Klucel (hydroxypropylcellulose) (HPC)) 101 % of control.
In the case of `NCCc1cc(O)c(O)cc1O`, the T/C was 101 % of control and 105 % of control under setting [17]; 107 % of control and 97 % of control under setting [7]; 101 % of control and 109 % of control under setting [8]; 100 % of control and 111 % of control under setting [4].
As for `C(=NCCN=Cc1cc2c(c3ccccc13)CCCC2)c1cc2c(c3ccccc13)CCCC2`, the T/C is 96 % of control under setting [9], 91 % of control under setting [10] and 88 % of control under setting [18].
Regarding `CSCCCNC(=O)c1csc(-c2csc(CCNC(=O)[C@@H](NSc3ccccc3[N+](=O)[O-])[C@@H](C)O)n2)n1`, the T/C by setting is: under setting [15], 100 % of control; under setting [16], 104 % of control; (dose: 25.0 mg/kg/injection, schedule: Q01DX005 (ip), vehicle: saline with Tween-80) 95 % of control; under setting [9], 87 % of control; under setting [18], 87 % of control.
